According to US20060264508A1, “Modulation of ocular growth and myopia by gaba drugs” (priority 2001, published 2006):
Where “and” joins values, the source holds several entries; their conditions need not be identical. Equal values may be shown once. Entries after “also recorded” stand apart in the source; their conditions may differ. Where a name gives a salt, the structure may show the parent alone. Read-outs that look alike come from different tables or passages of the source.

Experiments:
[1] = tested on: goggled eyes (form-deprivation myopia); details: daily intravitreal injection, result in words
[2] = tested on: non-goggled eyes; type: in vivo, White leghorn chicks; details: for Equatorial diameter (calipers) / axial length calipers / axial length ultrasound / refraction / vitreous chamber depth (ultrasound): daily intravitreal dose(s) at which drug-treated differ from contralateral vehicle-treated eyes (P<0.05, Tukey test); for effect on lens thickness / anterior chamber depth, drug-treated vs vehicle-treated eyes: primary outcome comparison
Text: Chicks were anesthetized with inhalation ether for all goggle applications and drug injections. The experimental eye was the right eye in half of the chicks, and the left eye in the other half of the chicks, assigned in an alternating order within each group. Form-deprivation myopia was induced by attaching a unilateral translucent white plastic goggle to the periorbital feathers with cyanoacrylate glue. All research conformed with the ARVO Resolution on the Use of Animals in Ophthalmic and Vision Research.
All goggle applications and/or drug injections began when the chicks reached one week of age. At about four hours into the light phase, a 10 μl intravitreal injection of either drug+vehicle or vehicle alone was given under aseptic conditions to the goggled or experimental non-goggled eye, with all contralateral eyes concurrently receiving vehicle injections.
On this day, the animals received no intraocular injections. […] While still under general anesthesia, the chicks were decapitated; and the axial and equatorial dimensions of enucleated eyes were measured with digital calipers. As the coronal profile of the chick eye is elliptical, the equatorial dimension was reported as the mean of the shortest and longest equatorial dimensions.
For goggled chicks, the primary measure of outcome was the drug effect on the ocular response to wearing a goggle, and comparisons of individual doses to each other and to vehicle-treated controls for each drug. Differences in refraction and each size measurement between goggled and contralateral eyes were assessed by one-way analysis of variance (ANOVA). For non-goggled chicks, the primary outcome measure was comparison of drug-treated to contralateral vehicle-treated eyes using a two-way repeated measures ANOVA (one factor replication, using eye as the replicated factor) for refractions and measurements.
The statistical outcomes with the two-way ANOVA are mainly described by the drug-treated to contralateral eye comparison. […] When the ANOVA assumptions of normality or equal variance were not met, the corresponding ANOVA on ranks was used. […] The Figures show the P values when the overall ANOVA reached a significance level of at least P<0.05, and the post-hoc tests for within group comparisons appear in the Tables that follow.

[3] = non-goggled eyes, drug-treated vs contralateral vehicle-treated eyes, result in words
[4] = non-goggled chicks receiving the 10 μg dose, mean±S.E.M.
[5] = non-goggled chicks, 10 μg dose, mean±S.E.M.
[6] = non-goggled chicks, contralateral vehicle-treated eyes
[7] = non-goggled chicks, drug-treated eyes
[8] = non-goggled eyes, result in words
[9] = non-goggled eyes, drug-treated vs contralateral vehicle-treated eyes, result in words, listed as muscimol, hydrobromide

NCC(O)(CS(=O)(=O)O)c1ccc(Cl)cc1 (centres unmarked) [2OH-saclofen, 2-hydroxysaclofen]
effect on axial dimensions (axial length, vitreous chamber depth; ultrasound or calipers) of goggled eyes [1]: none of the tendencies of either drug to reduce ocular dimensions by ultrasound or calipers reached statistical significance
effect on myopic refraction of goggled eyes [1]: reduced the myopic refractions

NC[C@H](CC(=O)O)c1ccc(Cl)cc1 [Baclofen, R(+)-baclofen]
Equatorial diameter (calipers) ([2]; non-goggled eyes): n.s. (n.s., P ≧ 0.05 by ANOVA)
axial length calipers ([2]; non-goggled eyes): * (P < 0.05 by ANOVA for drug-treated vs. contralateral eyes, but no specific pair-wise comparison identified by the Tukey test.)
axial length ultrasound ([2]; non-goggled eyes): n.s. (n.s., P ≧ 0.05 by ANOVA)
refraction ([2]; non-goggled eyes): n.s. (n.s., P ≧ 0.05 by ANOVA)
vitreous chamber depth (ultrasound) ([2]; non-goggled eyes): 100 µg
effect on axial growth / axial length and vitreous chamber depth of non-goggled eyes [2, 3]: modest deepening of the vitreous chamber
effect on refraction of non-goggled eyes [2, 3]: None of the other effects of baclofen on the non-goggled eyes, including refractions (data not shown), reached statistical significance
effect on axial dimensions (axial length, vitreous chamber depth; ultrasound or calipers) of goggled eyes [1]: neither the ultrasound nor the caliper measurements revealed statistically significant growth inhibition
effect on myopic refraction of goggled eyes [1]: partially reduced the myopic refractive error
overall effect on form-deprivation myopia (refraction and size measurements) of goggled eyes [1]: weak anti-myopia effect

NC/C=C\C(=O)O [CACA, cis-4-aminocrotomc acid]
anterior chamber depth of contralateral vehicle-treated eyes [2, 4]: 1.31±0.03 mm
lens thickness of contralateral vehicle-treated eyes [2, 4]: 2.22±0.02 mm
anterior chamber depth of drug-treated eyes [2, 5]: 1.32±0.03 mm
lens thickness of drug-treated eyes [2, 5]: 2.22±0.02 mm
lens thinner in contralateral vehicle-treated eyes at 10 μg than in the other two cohorts (100 or 200 μg) [2, 6]: 0.10 mm
anterior chambers deeper at the 10 μg dose than at the higher doses ([2]; non-goggled chicks, drug- and vehicle-treated eyes, vs 50, 100 or 200 μg): 0.08-0.14 mm
lens thinner in drug-treated eyes at 10 μg than at the 100 or 200 μg doses [2, 7]: 0.16 mm
Equatorial diameter (calipers) ([2]; non-goggled eyes): n.s. (n.s., P ≧ 0.05 by ANOVA)
axial length calipers ([2]; non-goggled eyes): n.s. (n.s., P ≧ 0.05 by ANOVA)
axial length ultrasound ([2]; non-goggled eyes): 50 µg
refraction ([2]; non-goggled eyes): n.s. (n.s., P ≧ 0.05 by ANOVA)
vitreous chamber depth (ultrasound) ([2]; non-goggled eyes): n.s. (n.s., P ≧ 0.05 by ANOVA)
effect on axial growth / axial length and vitreous chamber depth of non-goggled eyes [2, 3]: slightly stimulated axial length by ultrasound; also recorded: stimulate axial growth to a modest degree
effect on equatorial diameter of non-goggled eyes [2, 3]: without altering refraction or affecting equatorial diameter
effect on refraction of non-goggled eyes [2, 3]: not affecting refraction; also recorded: without altering refraction
effect on lens thickness / anterior chamber depth, drug-treated vs vehicle-treated eyes [2, 8]: did not affect lens thickness or anterior chamber depth
effect on axial dimensions (axial length, vitreous chamber depth; ultrasound or calipers) of goggled eyes [1]: not accompanied by any statistically identifiable changes in axial measurements
effect on equatorial diameter / equatorial expansion of goggled eyes (calipers) [1]: no change in the equatorial dimension
effect on myopic refraction of goggled eyes [1]: modest, perhaps biphasic effect
overall effect on form-deprivation myopia (refraction and size measurements) of goggled eyes [1]: none of the size measurements were altered

CCOC(OCC)P(=O)(O)CCCN [CGP35348, (3-aminopropyl)(diethoxy-methyl)phosphinic acid]
overall effect on form-deprivation myopia (refraction and size measurements) of goggled eyes [1]: no statistical effect

NCCCP(=O)(O)CC1CCCCC1 [CGP46381, (3-aminopropyl)(cyclo-hexylmethyl)phosphinic acid]
lens thickness of contralateral vehicle-treated eyes [2, 4]: 2.26±0.03 mm
lens thickness of drug-treated eyes [2, 5]: 2.27±0.04 mm
lens thicker in vehicle-treated eyes at 10 μg than at the 100 μg dose [2, 6]: 0.06 mm
lens thicker in drug-treated eyes at 10 μg than at the 100 μg dose [2, 7]: 0.07 mm
Equatorial diameter (calipers) ([2]; non-goggled eyes): n.s. (n.s., P ≧ 0.05 by ANOVA)
axial length calipers ([2]; non-goggled eyes): n.s. (n.s., P ≧ 0.05 by ANOVA)
axial length ultrasound ([2]; non-goggled eyes): n.s. (n.s., P ≧ 0.05 by ANOVA)
vitreous chamber depth (ultrasound) ([2]; non-goggled eyes): 100 µg
effect on axial growth / axial length and vitreous chamber depth of non-goggled eyes [2, 3]: slightly enhanced vitreous chamber length
effect on equatorial diameter of non-goggled eyes [2, 3]: did not exert statistically identifiable changes
effect on refraction of non-goggled eyes [2, 3]: did not exert statistically identifiable changes
effect on lens thickness / anterior chamber depth, drug-treated vs vehicle-treated eyes [2, 8]: no influence on lens thickness
effect on axial dimensions (axial length, vitreous chamber depth; ultrasound or calipers) of goggled eyes [1]: inhibited the myopic refractive shift, the axial and vitreous chamber elongation
effect on equatorial diameter / equatorial expansion of goggled eyes (calipers) [1]: inhibited the myopic refractive shift, the axial and vitreous chamber elongation, and the equatorial expansion
effect on myopic refraction of goggled eyes [1]: inhibited the myopic refractive shift
overall effect on form-deprivation myopia (refraction and size measurements) of goggled eyes [1]: potent anti-myopia effects; also recorded: inhibiting myopia and limiting axial vitreous chamber and equatorial expansion

NCc1cc(=O)[nH]o1 [Muscimol, Muscimol hydrobromide]
refraction of contralateral vehicle-treated eyes ([2]; non-goggled chicks, 5 μg daily dose to the other eye, mean±S.E.M.): 0.86±0.58 D
refraction of contralateral vehicle-treated eyes ([2]; non-goggled chicks, 10 μg daily dose to the other eye, mean±S.E.M.): +0.11±0.82 D
refraction of contralateral vehicle-treated eyes ([2]; non-goggled chicks, 50 μg daily dose to the other eye, mean±S.E.M.): 1.78±1.21 D
refraction of contralateral vehicle-treated eyes ([2]; non-goggled chicks, 200 μg daily dose to the other eye, mean±S.E.M.): 3.82±0.83 D
dose of maximum effect on refraction (shift to myopia) of non-goggled eyes ([2]; non-goggled eyes, daily intravitreal injection): 50 µg
effect on refraction of non-goggled eyes ([2]; non-goggled eyes, drug-treated vs contralateral vehicle-treated eyes, result in words, hydrobromide): induces a statistically significant myopic shift in refraction
effect on axial growth / axial length and vitreous chamber depth of non-goggled eyes [2, 9]: stimulated axial growth as measured by either ultrasound or calipers, and deepened the vitreous chamber; also recorded: increasing not only axial and vitreous chamber lengths
effect on equatorial diameter of non-goggled eyes [2, 9]: increased the equatorial diameter; also recorded: expanding the equatorial diameter
effect on refraction of non-goggled eyes [2, 9]: shifted the refraction to myopia; also recorded: statistically significant shift in refraction
overall effect on form-deprivation myopia (refraction and size measurements) of goggled eyes [1]: did not affect refraction, ultrasound or caliper measurements

CC1(C)CO[C@@H](CC(=O)O)CN1 [SCH50911, (+)-(2S)-5,5-dimethyl-2-morpholineacetic acid]
effect on axial dimensions (axial length, vitreous chamber depth; ultrasound or calipers) of goggled eyes [1]: none of the tendencies of either drug to reduce ocular dimensions by ultrasound or calipers reached statistical significance
effect on myopic refraction of goggled eyes [1]: reduced the myopic refractions

NC/C=C/C(=O)O [TACA, Trans-4-aminocrotonic acid]
overall effect on refraction and ocular size / eye growth of non-goggled eyes [2, 3]: influenced neither refraction nor ocular size measurements
overall effect on form-deprivation myopia (refraction and size measurements) of goggled eyes [1]: no statistically significant effects

CP(=O)(O)C1=CCNCC1 [TPMPA, (1,2,5,6-tetraliydro-pyridine-4-yl) methyiphosphinic acid]
axial length calipers ([2]; non-goggled eyes): 200 & μg and 100 μg
axial length ultrasound ([2]; non-goggled eyes): 10 µg
refraction ([2]; non-goggled eyes): § (P < 0.05 by ANOVA for overall dose effect, but no significant effect identified for drug-treated vs. contralateral eyes; no specific pairwise comparison identified by the Tukey test.)
vitreous chamber depth (ultrasound) ([2]; non-goggled eyes): * (P < 0.05 by ANOVA for drug-treated vs. contralateral eyes, but no specific pair-wise comparison identified by the Tukey test.)
effect on axial growth / axial length and vitreous chamber depth of non-goggled eyes [2, 3]: stimulated both axial growth and vitreous chamber length; also recorded: stimulates axial elongation and vitreous chamber depth
effect on equatorial diameter of non-goggled eyes [2, 3]: reduced the equatorial diameter; also recorded: equatorial dimension actually diminished
effect on refraction of non-goggled eyes [2, 3]: slight myopic refractive shift; also recorded: without altering refraction
effect on axial dimensions (axial length, vitreous chamber depth; ultrasound or calipers) of goggled eyes [1]: blocked the axial and vitreous chamber elongation as measured by ultrasound; also recorded: effects on axial growth as measured by calipers, did not reach statistical significance; also recorded: significantly reduces the axial length of the eye and vitreous chamber depth
effect on equatorial diameter / equatorial expansion of goggled eyes (calipers) [1]: blocked the axial and vitreous chamber elongation as measured by ultrasound, and the equatorial expansion
effect on myopic refraction of goggled eyes [1]: reduced the myopic refraction; also recorded: largely eliminates the myopic refractive shift
overall effect on form-deprivation myopia (refraction and size measurements) of goggled eyes [1]: potent anti-myopia effects
